Measured values from ChEMBL document CHEMBL1137802, “Specific antioxidant activity of caffeoyl derivatives and other natural phenolic compounds: LDL protection against oxidation and decrease in the proinflammatory lysophosphatidylcholine production” (J Nat Prod, 2001).
Activity calls are given as the source filed them. The calls are words filed in the database; no cut-off is given here.

How the values were obtained:
Assay type in all cases: functional, cell-free
[1] = Antioxidant activity against Cu2+-induced lipid peroxidation in human plasma LDL preincubated for 1 hr before Cu2+ challenge
[2] = Antioxidant activity against AAPH-induced lipid peroxidation in human plasma LDL preincubated for 1 hr before AAPH challenge
[3] = Antioxidant activity against AAPH-induced lipid peroxidation in human plasma LDL at 0.01 to 0.1 umol/L preincubated for 1 hr before AAPH challenge
[4] = Antioxidant activity against Cu2+-induced lipid peroxidation in human plasma LDL at 0.01 to 0.1 umol/L preincubated for 1 hr before Cu2+ challenge
[5] = Antioxidant activity against AAPH-induced lipid peroxidation in human plasma LDL at 0.2 umol/L preincubated for 1 hr before AAPH challenge
[6] = Antioxidant activity against AAPH-induced lipid peroxidation in human plasma LDL at 1 umol/L preincubated for 1 hr before AAPH challenge

Question: Which Activity [1] does the source give for `CC(=O)Oc1ccccc1C(=O)O` here?
Answer: The Activity was “inactive”.

Question: Which Activity [1] does the source give for `O=C(O)c1ccccc1O` here?
Answer: The Activity was “inactive”.

Question: With `COc1cc(/C=C/C(=O)O)ccc1O` as the compound, how does the Activity [1] read?
Answer: The Activity was 8.5 µM/L.

Question: What does the source list for `O=C(/C=C/c1ccc(O)c(O)c1)O[C@@H]1C[C@](O)(C(=O)O)C[C@@H](O)[C@H]1O`?
Answer: Activity [1]: 156 µM/L; Activity [2]: 55.3 µM/L

Question: For `O=C(/C=C/c1ccc(O)c(O)c1)O[C@H](Cc1ccc(O)c(O)c1)C(=O)O`, which Activity [1] is on record?
Answer: The Activity was 150 µM/L.

Question: With `Oc1cc(O)c2c(c1)O[C@H](c1ccc(O)c(O)c1)[C@H](O)C2` as the compound, how does the Activity [1] read?
Answer: Its Activity is 37.1 µmol/L.

Question: For `COc1cc(/C=C/C(=O)O)cc(OC)c1O`, which Activity [1] is on record?
Answer: Its Activity is 47.4 µM/L.

Question: For `O=C(O)c1cc(O)c(O)c(O)c1`, which Activity [3] is on record?
Answer: The Activity was “Active”.

Question: And the Activity [4]?
Answer: Its Activity is “Active”.

Question: And the Activity [5]?
Answer: The Activity was 90 µM/L.

Question: What about the Activity [6] of the same compound?
Answer: The Activity was 30 µM/L.

Question: With `Oc1cc(O)c2c(c1)OC(c1ccc(O)c(O)c1)C(O)C2` (stereo unspecified) as the compound, how does the Activity [1] read?
Answer: Its Activity is 34.6 µM/L.

Question: What about the Activity [2] of the same compound?
Answer: Its Activity is 156 µM/L.

Question: For `O=C(O)/C=C/c1ccc(O)c(O)c1`, which Activity [1] is on record?
Answer: Its Activity is 54 µM/L.

Question: What about the Activity [2] of the same compound?
Answer: The Activity was 73.6 µM/L.

Question: For `O=C(O)c1ccc(O)c(O)c1`, which Activity [3] is on record?
Answer: Its Activity is “Active”.

Question: And the Activity [4]?
Answer: The Activity was “Active”.

Question: With `O=C(/C=C/c1ccc(O)c(O)c1)OC(C(=O)O)C(O)C(=O)O` (stereo unspecified) as the compound, how does the Activity [1] read?
Answer: The Activity was 125 µM/L.

Question: With VITAMIN E as the compound, how does the Activity [1] read?
Answer: Its Activity is 7.2 µM/L.

Question: For `O=C(O)/C=C/c1ccc(O)cc1`, which Activity [1] is on record?
Answer: Its Activity is 0.6 µM/L.
